According to BindingDB's records for doi:10.1021/jm100809g (F. Hoffmann-La Roche, 2011):

Molecular target: Carnitine O-palmitoyltransferase 1, liver isoform (Rattus norvegicus) (UniProt P32198)
Experiment: Maximal inhibition of rat CPT1A

Chain of Carnitine O-palmitoyltransferase 1, liver isoform (Rattus norvegicus) (P32198 whole entry, looked up, canonical isoform): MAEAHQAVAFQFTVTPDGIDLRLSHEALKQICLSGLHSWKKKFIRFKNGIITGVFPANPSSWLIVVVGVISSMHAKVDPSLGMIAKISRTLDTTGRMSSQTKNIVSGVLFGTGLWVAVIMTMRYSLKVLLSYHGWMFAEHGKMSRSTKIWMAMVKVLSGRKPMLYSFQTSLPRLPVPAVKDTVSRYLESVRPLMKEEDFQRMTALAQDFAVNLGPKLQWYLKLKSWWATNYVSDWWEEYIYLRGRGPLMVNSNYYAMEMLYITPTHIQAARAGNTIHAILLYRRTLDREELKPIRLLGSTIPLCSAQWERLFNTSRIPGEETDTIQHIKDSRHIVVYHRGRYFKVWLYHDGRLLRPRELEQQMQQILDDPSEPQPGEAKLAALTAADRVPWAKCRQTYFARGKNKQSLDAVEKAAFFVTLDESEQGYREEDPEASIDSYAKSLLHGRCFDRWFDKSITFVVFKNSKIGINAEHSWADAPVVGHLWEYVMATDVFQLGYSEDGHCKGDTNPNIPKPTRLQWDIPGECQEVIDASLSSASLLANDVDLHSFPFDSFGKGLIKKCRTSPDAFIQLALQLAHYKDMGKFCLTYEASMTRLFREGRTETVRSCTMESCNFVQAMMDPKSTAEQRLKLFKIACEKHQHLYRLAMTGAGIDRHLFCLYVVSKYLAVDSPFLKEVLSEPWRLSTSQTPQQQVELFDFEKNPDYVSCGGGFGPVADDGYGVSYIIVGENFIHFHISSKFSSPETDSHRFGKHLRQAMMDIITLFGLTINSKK

SMILES | IC50
COc1ccc(C)cc1S(=O)(=O)N1CCCc2ccc(C(=O)Nc3ccc(CC(=O)O)cc3)cc21 | 180 nM
COc1ccc(Cl)cc1S(=O)(=O)N1CC(C(=O)O)Oc2ccc(C(=O)Nc3cccc(F)c3)cc21 (configuration not stated) | 30 nM
C[N+](C)(C)C[C@H](N)CC(=O)[O-] | 27300 nM
COc1ccc(Cl)cc1S(=O)(=O)N1CCc2ccc(C(=O)Nc3ccc(C(=O)O)cc3)cc21 | 55 nM
O=C(NCc1cccs1)c1nn(Cc2cccc(C(F)(F)F)c2)c2ccccc12 | 150 nM
O=C(COc1ccccc1)N1CCCC[C@@H]1c1nc(-c2ccccn2)cs1 | 130 nM
CCCCCCCCCCCCCCNC(=O)N[C@H](CC(=O)[O-])C[N+](C)(C)C [[3-Carboxy-2-(3-tetradecyl-ureido)-propyl]-trimethyl-ammonium] | 1450 nM
